Data on five compounds can be found in US6413517B1, “Identification of broadly reactive DR restricted epitopes” (Epimmune, Inc., priority 1997, dated 2002).

One test concerns the target T1, DRB1*1101 (DR5w11) (Homo sapiens, UniProt P01903+P01911, A100R/A169T/A87E/I96F/K41T/L162R/M171V/P40S/Q125H/Q178H/Q39Y/Q99D/R42S/S66Y/T262R/V115G/W38E).
T1 construct: Epstein-Barr virus (EBV) transformed homozygous cell lines were used as sources; endogenous in cells; host or cells: SWEIG (EBV-transformed homozygous B cell line)
The experiment in a line: biochemical. It counts as binding.

Test [1] deals with T2, DRB1*0301 (DR3w17) (Homo sapiens, UniProt P01903+P01911, A100K/A102G/A103R/A169T/F55Y/I96L/K41T/L162R/M171V/P40S/Q125H/Q178H/Q39Y/R42S/S66N/T106N/T262R/W38E/Y61H). The test can be described thus: biochemical.
In a further test the target is T3, DRB1*1201 (DR5w12) (Homo sapiens, UniProt P01903+P01911, A100R/A169T/D57E/D86V/F55L/H45Y/K41T/L162R/M171V/P40S/Q125H/Q178H/Q39Y/Q99D/R42G/S66L/T262R/V114A/V67L/W38E/Y59H/Y61H/Y89S).
T3 construct: Epstein-Barr virus (EBV) transformed homozygous cell lines were used as sources; endogenous in cells; host or cells: Herluf (EBV-transformed homozygous B cell line)
The test can be described thus: biochemical. In kind it is binding.

The target of another test is T4, DRB1*0101 (DR1) (Homo sapiens, UniProt P01903+P01911, A100R/D57E/F55L/F60I/F76Y/I96L/L162R/M171V/P40L/Q125E/R42F/V115G/Y59C).
T4 construct: Epstein-Barr virus (EBV) transformed homozygous cell lines were used as sources; endogenous in cells; host or cells: LG2 (EBV-transformed homozygous B cell line)
The test can be described thus: biochemical. It counts as binding. Conditions: Binding Capacity (IC 50% nM) DR1,4,7 DRB1.

A further test addresses T5, DRB1*0802 (DR8w2) (Homo sapiens, UniProt P01903+P01911, A100R/A103L/A169T/F76Y/H45Y/I96F/K41T/L162R/M171V/P40S/Q125H/Q178H/Q39Y/Q99D/R218S/R42G/S66Y/V115G/W38E).
T5 construct: Epstein-Barr virus (EBV) transformed homozygous cell lines were used as sources; endogenous in cells; host or cells: OLL (EBV-transformed homozygous B cell line)
The experiment in a line: biochemical. It counts as binding.

In the next test the target is T6, DRB1*0901 (DR9) (Homo sapiens, UniProt P01903+P01911, A100R/A103E/D57H/D86V/F55Y/F60I/F76Y/I96F/K127E/L162R/M171V/P40D/Q125H/Q99R/R33Q/R42F/S133A/S66N/T210M/V115G/W38K/Y107V/Y59G/Y89S).
T6 construct: Epstein-Barr virus (EBV) transformed homozygous cell lines were used as sources; endogenous in cells
The test can be described thus: biochemical. It counts as binding. As to conditions: Binding Capacity (IC 50% nM) Other Alleles DR9.

The next test deals with T7, DRB1*0701 (DR7) (Homo sapiens, UniProt P01903+P01911, A100R/A102G/A103Q/D57E/D86V/E43K/F76Y/K127E/L162R/M171V/P40G/Q125H/Q99D/R33Q/R42Y/R54Q/S133A/S66F/T210M/V115G/Y107V/Y59L/Y89S).
T7 construct: Epstein-Barr virus (EBV) transformed homozygous cell lines were used as sources; endogenous in cells; host or cells: PITOUT (EBV-transformed homozygous B cell line)
The experiment in a line: biochemical. In kind it is binding.

A further test deals with T8, DRB1*1302 (DR6w19) (Homo sapiens, UniProt P01903+P01911, A100E/A169T/K41T/L162R/M171V/P40S/Q125H/Q178H/Q39Y/Q99D/R42S/S66N/T262R/V115G/W38E/Y61H).
T8 construct: Epstein-Barr virus (EBV) transformed homozygous cell lines were used as sources; the source of Class II molecules the EBV transformed homozygous cell line H0301; endogenous in cells; host or cells: H0301 (EBV-transformed homozygous B cell line)
The experiment in a line: biochemical. It counts as binding. Conditions: Binding Capacity (IC 50% nM) Other Alleles DR6w19.

In another test the target is T9, DRB1*1501 (DR2w2b) (Homo sapiens, UniProt P01903+P01911).
T9 construct: expressed in transfected cells; host or cells: transfected fibroblasts L466.1
The experiment in a line: biochemical. In kind it is binding.

Another test deals with T10, DRB1*0401 (DR4w4) (Homo sapiens, UniProt P01903+P01911, A100K/A169T/F76Y/I96L/K127E/L162R/M171V/N62H/P40V/Q125Y/R42H/S133A/S149N/S66Y/V115G/V209L/W38E).
T10 construct: Epstein-Barr virus (EBV) transformed homozygous cell lines were used as sources; endogenous in cells; host or cells: PREISS (EBV-transformed homozygous B cell line)
The test can be described thus: biochemical. It counts as binding.

Another test has as its target T11, DRB5*0101 (DR2w2a) (Homo sapiens, UniProt P01903+Q30154).
T11 construct: Epstein-Barr virus (EBV) transformed homozygous cell lines were used as sources; endogenous in cells; host or cells: GM3107 (EBV-transformed homozygous B cell line)
The experiment in a line: biochemical. It counts as binding.

A further test has as its target T12, DRB1*0405 (DR4w15) (Homo sapiens, UniProt P01903+P01911, A100R/A169T/D86S/F76Y/I96L/K127E/L162R/M171V/N62H/P40V/Q125Y/R42H/S133A/S149N/S66Y/V115G/V209L/W38E).
T12 construct: Epstein-Barr virus (EBV) transformed homozygous cell lines were used as sources; endogenous in cells; host or cells: KT3 (EBV-transformed homozygous B cell line)
The experiment in a line: biochemical. It counts as binding.

Test [2] concerns the target T2, DRB1*0301 (DR3w17). Conditions: read-out: Binding Capacity (IC 50% nM) Other Alleles DR3.
Where [3] appears, read: read-out: Binding Capacity (IC 50% nM) Other Alleles DR5w11.
Setting [4] is: read-out: Binding Capacity (IC 50% nM) Other Alleles DR5w12.
Setting [5] is: Binding Capacity (IC 50% nM) Other Alleles DR8w2.
The mark [6] stands for this setting: Binding Capacity (IC 50% nM) DR1,4,7 DR7.
[7] abbreviates: Binding Capacity (IC 50% nM) Other Alleles DR2w2b.
[8] abbreviates: Binding Capacity (IC 50% nM) DR1,4,7 DR4w4.
The mark [9] stands for this setting: Binding Capacity (IC 50% nM) Other Alleles DR2w2a.
Where [10] appears, read: read-out: Binding Capacity (IC 50% nM) Other Alleles DR4w15.
Setting [11] is: Binding Capacity (IC50% nM) DR3.
Setting [12] is: Binding Capacity (IC50% nM) DR2w2b.
[13] abbreviates: read-out: Binding Capacity (IC 50% nM) Other Alleles DR2w2b.

Read-outs that look alike come from different tables or passages of the source.

T1 sequence (P01903 26-254, other chains not shown): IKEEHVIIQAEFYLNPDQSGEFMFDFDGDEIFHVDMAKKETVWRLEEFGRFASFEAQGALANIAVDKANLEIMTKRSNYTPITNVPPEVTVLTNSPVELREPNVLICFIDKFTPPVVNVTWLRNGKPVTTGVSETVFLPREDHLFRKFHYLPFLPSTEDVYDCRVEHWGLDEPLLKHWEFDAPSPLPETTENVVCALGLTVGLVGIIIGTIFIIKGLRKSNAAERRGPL

`CSCC[C@H](NC(=O)[C@H](C)NC(=O)[C@H](CC(C)C)NC(=O)[C@@H]1CCCN1C(=O)[C@@H](NC(=O)[C@H](C)NC(=O)[C@H](Cc1c[nH]cn1)NC(=O)[C@H](CC(N)=O)NC(=O)[C@@H](NC(=O)[C@H](Cc1c[nH]c2ccccc12)NC(=O)[C@H](CC(N)=O)NC(=O)[C@H](Cc1c[nH]cn1)NC(=O)[C@@H](N)CCCNC(=N)N)C(C)C)C(C)C)C(=O)N[C@@H](CCCCN)C(=O)N[C@@H](CC(C)C)C(=O)O` [Peptide 1188.45]: the IC50 at DRB1*1101 (DR5w11) (setting [3]) was above 1000 nM; on DRB1*0301 (DR3w17) [1] (Binding Capacity (IC 50% nM) Other Alleles DR3), below 1000 nM; on DRB1*1201 (DR5w12) (Binding Capacity (IC50% nM) DR5w12), above 10000 nM; at DRB1*1201 (DR5w12) (setting [4]) it was above 1000 nM; at DRB1*0101 (DR1) it was below 1000 nM; at DRB1*0802 (DR8w2) (setting [5]) it was below 1000 nM. The IC50 on DRB1*0901 (DR9) is below 1000 nM; at DRB1*0701 (DR7) (setting [6]), below 1000 nM; at DRB1*1302 (DR6w19), below 1000 nM; at DRB1*1501 (DR2w2b) (setting [7]) it was below 1000 nM; at DRB1*0401 (DR4w4) (setting [8]), below 1000 nM; at DRB1*0401 (DR4w4) (Binding Capacity (IC50% nM) DR4w4) it was 9 nM. For the same compound, the IC50 is below 1000 nM on DRB5*0101 (DR2w2a) (setting [9]) and above 1000 nM on DRB1*0405 (DR4w15) (setting [10]).

`CC[C@H](C)[C@H](NC(=O)[C@H](CC(C)C)NC(=O)[C@H](CCCCN)NC(=O)[C@H](CCSC)NC(=O)[C@H](C)NC(=O)[C@H](CC(C)C)NC(=O)[C@@H]1CCCN1C(=O)[C@@H](NC(=O)[C@H](C)NC(=O)[C@H](Cc1c[nH]cn1)NC(=O)[C@H](CC(N)=O)NC(=O)[C@@H](NC(=O)[C@H](Cc1c[nH]c2ccccc12)NC(=O)[C@H](CC(N)=O)NC(=O)[C@@H](N)Cc1c[nH]cn1)C(C)C)C(C)C)C(=O)O` [Peptide 1188.34]: the IC50 on DRB1*0301 (DR3w17) [2] is above 1000 nM; at DRB1*1101 (DR5w11) (setting [3]), above 1000 nM; at DRB1*1201 (DR5w12) (Binding Capacity (IC 50% nM) Other Alleles DR5w12) it was below 1000 nM; at DRB1*0101 (DR1), below 1000 nM; at DRB1*0802 (DR8w2) (setting [5]), below 1000 nM; at DRB1*0901 (DR9), below 1000 nM. Further, the IC50 at DRB1*0701 (DR7) (setting [6]), on DRB1*1302 (DR6w19), at DRB1*1501 (DR2w2b) (setting [7]), on DRB1*0401 (DR4w4) (setting [8]), on DRB5*0101 (DR2w2a) (setting [9]) and on DRB1*0405 (DR4w15) (Binding Capacity (IC 50% nM) Other Alleles DR4w15) was below 1000 nM in each case.

Regarding `CC(C)C[C@H](NC(=O)CN)C(=O)N[C@@H](C)C(=O)N[C@@H](Cc1ccc(O)cc1)C(=O)N[C@@H](CCCCN)C(=O)N[C@@H](Cc1ccccc1)C(=O)N[C@H](C(=O)N[C@H](C(=O)N1CCC[C@H]1C(=O)NCC(=O)N[C@@H](C)C(=O)N[C@@H](C)C(=O)N[C@H](C(=O)N1CCC[C@H]1C(=O)N[C@@H](Cc1ccc(O)cc1)C(=O)O)[C@@H](C)O)C(C)C)C(C)C` [Peptide 1188.32], the IC50 is above 1000 nM at DRB1*0301 (DR3w17) [2], above 10000 nM at DRB1*0301 (DR3w17) [1] (setting [11]), above 10000 nM at DRB1*1501 (DR2w2b) (setting [12]) and above 1000 nM on DRB1*1501 (DR2w2b) (setting [13]).

Turning to `CC[C@H](C)[C@H](NC(=O)[C@H](C)NC(=O)[C@H](CC(C)C)NC(=O)[C@H](CCCCN)NC(=O)[C@H](CCCNC(=N)N)NC(=O)[C@@H](N)CCSC)C(=O)N[C@@H](CC(C)C)C(=O)N[C@@H](CO)C(=O)N[C@H](C(=O)N[C@@H](CO)C(=O)N[C@@H](CO)C(=O)N[C@@H](Cc1ccccc1)C(=O)N[C@@H](CC(C)C)C(=O)N[C@@H](Cc1ccccc1)C(=O)N[C@H](C(=O)O)C(C)C)C(C)C` [Peptide 27.388], the IC50 at DRB1*0301 (DR3w17) [1] (setting [11]) is above 10000 nM; at DRB1*0101 (DR1), below 1000 nM.

Regarding `CC(C)[C@H](NC(=O)[C@H](Cc1ccccc1)NC(=O)[C@@H](N)CCCCN)C(=O)N[C@H](C(=O)N1CCC[C@H]1C(=O)NCC(=O)N[C@@H](C)C(=O)N[C@@H](C)C(=O)N[C@H](C(=O)N1CCC[C@H]1C(=O)N[C@@H](Cc1ccc(O)cc1)C(=O)N[C@@H](C)C(=O)NCC(=O)N[C@@H](CCC(=O)O)C(=O)N1CCC[C@H]1C(=O)O)[C@@H](C)O)C(C)C` [Peptide F107.17], the IC50 on DRB1*0301 (DR3w17) [2] was above 1000 nM; on DRB1*1101 (DR5w11) (Binding Capacity (IC50% nM) DR5w11), above 10000 nM; on DRB1*1101 (DR5w11) (setting [3]), above 1000 nM; on DRB1*1201 (DR5w12) (setting [4]), above 1000 nM; on DRB1*0101 (DR1), below 1000 nM; on DRB1*0802 (DR8w2) (read-out: Binding Capacity (IC 50% nM) Other Alleles DR8w2), above 1000 nM. Besides, the IC50 is below 1000 nM on DRB1*0901 (DR9); above 10000 nM at DRB1*0701 (DR7) (Binding Capacity (IC50% nM) DR7); above 1000 nM at DRB1*0701 (DR7) (read-out: Binding Capacity (IC 50% nM) DR1,4,7 DR7); below 1000 nM on DRB1*1302 (DR6w19); above 10000 nM at DRB1*1501 (DR2w2b) (setting [12]); above 1000 nM on DRB1*1501 (DR2w2b) (setting [13]). Also, the IC50 at DRB1*0401 (DR4w4) (setting [8]) was below 1000 nM; at DRB5*0101 (DR2w2a) (Binding Capacity (IC50% nM) DR2w2a), above 10000 nM; on DRB5*0101 (DR2w2a) (read-out: Binding Capacity (IC 50% nM) Other Alleles DR2w2a) it was above 1000 nM; on DRB1*0405 (DR4w15) (setting [10]) it was above 1000 nM.
